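Exposure lasted 48 hours, with cells grown in 96-well plates and compounds tested at five concentrations. The concentration for 50% growth inhibition is given as GI50. TGI: total growth inhibition.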
Columns and labels:
Test in all cases: NCI tumour cell line growth inhibition, 48 h
A498 renal = tested on: A498 renal
HCT-116 colon = tested on: HCT-116 colon
HCT-15 colon = tested on: HCT-15 colon
HL-60(TB) leukemia = tested on: HL-60(TB) leukemia
HOP-92 NSCLC = tested on: HOP-92 NSCLC
K-562 leukemia = tested on: K-562 leukemia
LOX IMVI melanoma = tested on: LOX IMVI melanoma
OVCAR-4 ovarian = tested on: OVCAR-4 ovarian
RXF 393 renal = tested on: RXF 393 renal
SF-295 CNS = tested on: SF-295 CNS

## NCC(Cc1ccccc1)P(=O)(O)O (stereo not given)
A498 renal
  TGI: > 100 µM
HCT-116 colon
  TGI: > 100 µM
HCT-15 colon
  TGI: > 100 µM
HL-60(TB) leukemia
  TGI: > 100 µM
HOP-92 NSCLC
  TGI: > 100 µM
K-562 leukemia
  TGI: > 100 µM
LOX IMVI melanoma
  TGI: > 100 µM
OVCAR-4 ovarian
  TGI: > 100 µM
RXF 393 renal
  TGI: > 100 µM
SF-295 CNS
  TGI: > 100 µM

## CCOC(=O)C1=C(C)N(Cc2ccc(Cl)cc2Cl)[C@]2(C#N)C(O)=C(Cl)C(Cl)=C(O)[C@]12C#N
A498 renal
  GI50: > 100 µM
  TGI: > 100 µM
HCT-116 colon
  GI50: 34.7 µM
  TGI: > 100 µM
HCT-15 colon
  GI50: 62 µM
  TGI: > 100 µM
HL-60(TB) leukemia
  GI50: 31.9 µM
  TGI: 76.9 µM
HOP-92 NSCLC
  GI50: 17.9 µM
  TGI: 44.2 µM
K-562 leukemia
  GI50: 28.1 µM
  TGI: 57.5 µM
LOX IMVI melanoma
  GI50: 17.5 µM
  TGI: 35 µM
OVCAR-4 ovarian
  GI50: > 100 µM
  TGI: > 100 µM
RXF 393 renal
  GI50: 30.6 µM
  TGI: 89.1 µM
SF-295 CNS
  GI50: > 100 µM
  TGI: > 100 µM

## O=c1c2cccc3cccc(c4n1CCCN=4)c32
A498 renal
  TGI: > 100 µM
HCT-116 colon
  TGI: > 100 µM
HCT-15 colon
  TGI: > 100 µM
HL-60(TB) leukemia
  TGI: > 100 µM
HOP-92 NSCLC
  TGI: > 100 µM
K-562 leukemia
  TGI: > 100 µM
LOX IMVI melanoma
  TGI: 53.5 µM
OVCAR-4 ovarian
  TGI: > 100 µM
RXF 393 renal
  TGI: > 100 µM
SF-295 CNS
  TGI: > 100 µM

## O=C1c2ccoc2C(=O)c2oc(=O)ccc21
A498 renal
  TGI: > 85.9 µM
HCT-116 colon
  TGI: 10.3 µM
HCT-15 colon
  TGI: 24.9 µM
HL-60(TB) leukemia
  TGI: 6.8 µM
HOP-92 NSCLC
  TGI: 39.8 µM
K-562 leukemia
  TGI: 22.4 µM
LOX IMVI melanoma
  TGI: 10.7 µM
OVCAR-4 ovarian
  TGI: 13.5 µM
RXF 393 renal
  TGI: 15.1 µM
SF-295 CNS
  TGI: 31.5 µM

## C/C(CC(=O)Nc1cccc(Cl)c1C)=N\N=C(N)N
A498 renal
  TGI: > 100 µM
HCT-116 colon
  TGI: > 100 µM
HCT-15 colon
  TGI: > 100 µM
HL-60(TB) leukemia
  TGI: > 100 µM
HOP-92 NSCLC
  TGI: > 100 µM
K-562 leukemia
  TGI: > 100 µM
LOX IMVI melanoma
  TGI: > 100 µM
OVCAR-4 ovarian
  TGI: > 100 µM
RXF 393 renal
  TGI: > 100 µM
SF-295 CNS
  TGI: > 100 µM

## O=c1c2ccccc2n2cnc3ccc(NCCNCCO)c1c32
A498 renal
  TGI: 6.96 µM
HCT-116 colon
  TGI: 8.29 µM
HCT-15 colon
  TGI: 13.7 µM
HL-60(TB) leukemia
  TGI: 18.5 µM
HOP-92 NSCLC
  TGI: 13.1 µM
K-562 leukemia
  TGI: > 51.1 µM
LOX IMVI melanoma
  TGI: 2.8 µM
OVCAR-4 ovarian
  TGI: 4.57 µM
RXF 393 renal
  TGI: 4.65 µM
SF-295 CNS
  TGI: 9.2 µM

## Cc1cc(-c2ccco2)cc(C)c1/C=C/c1cncc(-c2nn[nH]n2)c1
A498 renal
  GI50: > 25 µM
  TGI: > 25 µM
HCT-116 colon
  GI50: > 25 µM
  TGI: > 25 µM
HCT-15 colon
  GI50: > 25 µM
  TGI: > 25 µM
HL-60(TB) leukemia
  GI50: > 25 µM
  TGI: > 25 µM
HOP-92 NSCLC
  GI50: > 25 µM
  TGI: > 25 µM
K-562 leukemia
  GI50: > 25 µM
  TGI: > 25 µM
LOX IMVI melanoma
  GI50: > 25 µM
  TGI: > 25 µM
OVCAR-4 ovarian
  GI50: > 25 µM
  TGI: > 25 µM
RXF 393 renal
  GI50: > 25 µM
  TGI: > 25 µM
SF-295 CNS
  GI50: > 25 µM
  TGI: > 25 µM

## O=C(Nc1nc2c(s1)CCc1c-2c(Br)n(Cc2ccccc2)c1Br)c1ccccc1
A498 renal
  GI50: 4.7 µM
  TGI: 28.9 µM
HCT-116 colon
  GI50: 3.98 µM
  TGI: > 100 µM
HCT-15 colon
  GI50: 12.4 µM
  TGI: > 100 µM
HL-60(TB) leukemia
  GI50: 45.3 µM
  TGI: > 100 µM
HOP-92 NSCLC
  GI50: 1.2 µM
  TGI: 4.63 µM
K-562 leukemia
  GI50: 22.9 µM
  TGI: > 100 µM
LOX IMVI melanoma
  GI50: 5.53 µM
  TGI: > 100 µM
OVCAR-4 ovarian
  GI50: 1.8 µM
  TGI: 7.54 µM
RXF 393 renal
  GI50: 2.01 µM
  TGI: 7.69 µM
SF-295 CNS
  GI50: 3.01 µM
  TGI: 13.2 µM

## COC(=O)c1cc2ccccc2c2nc3ccccc3c(Cl)c12
A498 renal
  TGI: > 100 µM
HCT-116 colon
  TGI: > 100 µM
HCT-15 colon
  TGI: > 100 µM
HL-60(TB) leukemia
  TGI: > 100 µM
HOP-92 NSCLC
  TGI: > 100 µM
K-562 leukemia
  TGI: > 100 µM
LOX IMVI melanoma
  TGI: > 100 µM
OVCAR-4 ovarian
  TGI: > 100 µM
RXF 393 renal
  TGI: > 100 µM
SF-295 CNS
  TGI: > 100 µM

## CCC1=C(c2ccc(OC)cc2)CC[C@]2(CCNC2=O)[C@@H]1C
A498 renal
  TGI: > 100 µM
HCT-116 colon
  TGI: 52.6 µM
HCT-15 colon
  TGI: > 88.8 µM
HL-60(TB) leukemia
  TGI: 69.2 µM
HOP-92 NSCLC
  TGI: > 100 µM
K-562 leukemia
  TGI: 48.7 µM
LOX IMVI melanoma
  TGI: 60.5 µM
OVCAR-4 ovarian
  TGI: 69.5 µM
RXF 393 renal
  TGI: > 100 µM
SF-295 CNS
  TGI: > 100 µM

## NNC(=O)N/N=C1\CNC(=O)C(=O)C1c1nc2ccccc2s1 (stereo not given)
A498 renal
  TGI: > 100 µM
HCT-116 colon
  TGI: > 100 µM
HCT-15 colon
  TGI: > 100 µM
HL-60(TB) leukemia
  TGI: > 100 µM
HOP-92 NSCLC
  TGI: > 100 µM
K-562 leukemia
  TGI: > 100 µM
LOX IMVI melanoma
  TGI: > 100 µM
OVCAR-4 ovarian
  TGI: > 100 µM
RXF 393 renal
  TGI: > 100 µM
SF-295 CNS
  TGI: > 100 µM

## Oc1ccc(-c2[nH]c3ccccc3c2-c2nc3ccccc3o2)cc1
A498 renal
  GI50: 2.18 µM
  TGI: 14.9 µM
HCT-116 colon
  GI50: 3.15 µM
  TGI: 13 µM
HCT-15 colon
  GI50: 2.97 µM
  TGI: 13.1 µM
HL-60(TB) leukemia
  GI50: 12.1 µM
  TGI: 49.5 µM
HOP-92 NSCLC
  GI50: 2.73 µM
  TGI: 15.9 µM
K-562 leukemia
  GI50: 3.98 µM
  TGI: 21.8 µM
LOX IMVI melanoma
  GI50: 1.9 µM
  TGI: 5.72 µM
OVCAR-4 ovarian
  GI50: 2.14 µM
  TGI: 14.7 µM
RXF 393 renal
  GI50: 4.24 µM
  TGI: 18.9 µM
SF-295 CNS
  GI50: 4.48 µM
  TGI: 19.4 µM

## CC1=NN(c2nc(N)nc(/C=C\c3ccccc3)n2)C(C)(C)C1
A498 renal
  GI50: 5.58 µM
  TGI: 20.7 µM
HCT-116 colon
  GI50: 2.76 µM
  TGI: 14.2 µM
HCT-15 colon
  GI50: 3.27 µM
  TGI: 44.7 µM
HL-60(TB) leukemia
  GI50: 10.8 µM
  TGI: 39.5 µM
HOP-92 NSCLC
  GI50: 19.5 µM
  TGI: 39.5 µM
K-562 leukemia
  GI50: 3.98 µM
  TGI: 22.1 µM
LOX IMVI melanoma
  GI50: 1.99 µM
  TGI: 15 µM
OVCAR-4 ovarian
  GI50: 4.16 µM
  TGI: 16.6 µM
RXF 393 renal
  GI50: 5.8 µM
  TGI: 20.1 µM
SF-295 CNS
  GI50: 11.7 µM
  TGI: 30.5 µM

## CCN(CC)CCS(=O)(=O)CCNc1ccnc2cc(Cl)ccc12
A498 renal
  GI50: 2.25 µM
  TGI: 8.28 µM
HCT-116 colon
  GI50: 0.834 µM
  TGI: 4.63 µM
HCT-15 colon
  GI50: 2.33 µM
  TGI: > 38.1 µM
HL-60(TB) leukemia
  GI50: 1.37 µM
  TGI: 20 µM
HOP-92 NSCLC
  GI50: 0.619 µM
  TGI: 7.39 µM
K-562 leukemia
  GI50: 0.96 µM
  TGI: > 49.8 µM
LOX IMVI melanoma
  GI50: 0.982 µM
  TGI: 5.85 µM
OVCAR-4 ovarian
  GI50: 2.07 µM
  TGI: > 62.2 µM
RXF 393 renal
  GI50: 1.32 µM
  TGI: 5.8 µM
SF-295 CNS
  GI50: 8.38 µM
  TGI: > 64 µM

## NC(=O)C(=O)Cc1nc2ccccc2s1
A498 renal
  TGI: > 100 µM
HCT-116 colon
  TGI: > 100 µM
HCT-15 colon
  TGI: > 100 µM
HL-60(TB) leukemia
  TGI: > 100 µM
HOP-92 NSCLC
  TGI: > 100 µM
K-562 leukemia
  TGI: > 100 µM
LOX IMVI melanoma
  TGI: > 100 µM
OVCAR-4 ovarian
  TGI: > 100 µM
RXF 393 renal
  TGI: > 100 µM
SF-295 CNS
  TGI: > 100 µM

## CN(C)CCNC(=O)c1cccc2cc3ccc4ccccc4c3nc12
A498 renal
  TGI: 0.0693 µM
HCT-116 colon
  TGI: 1.05 µM
HCT-15 colon
  TGI: 0.593 µM
HL-60(TB) leukemia
  TGI: 0.27 µM
HOP-92 NSCLC
  TGI: 0.593 µM
K-562 leukemia
  TGI: > 100 µM
LOX IMVI melanoma
  TGI: 0.256 µM
OVCAR-4 ovarian
  TGI: 0.752 µM
RXF 393 renal
  TGI: 0.267 µM
SF-295 CNS
  TGI: 0.886 µM

## CC/C(=C(/c1ccc(/C=C/C(=O)O)cc1)c1ccc2[nH]ncc2c1)c1ccc(F)cc1Cl
A498 renal
  GI50: 4.75 µM
  TGI: 17.9 µM
HCT-116 colon
  GI50: 7.45 µM
  TGI: 20.8 µM
HCT-15 colon
  GI50: 7.45 µM
  TGI: 22 µM
HL-60(TB) leukemia
  GI50: 9.3 µM
  TGI: 31 µM
HOP-92 NSCLC
  GI50: 10.1 µM
  TGI: 24.8 µM
K-562 leukemia
  GI50: 12.1 µM
  TGI: 41 µM
LOX IMVI melanoma
  GI50: 14.5 µM
  TGI: 39.6 µM
OVCAR-4 ovarian
  GI50: 12 µM
  TGI: 27.9 µM
RXF 393 renal
  GI50: 5.31 µM
  TGI: 16.3 µM
SF-295 CNS
  GI50: 7.81 µM
  TGI: 21.1 µM
